{
  "source": "patent US7820197B2",
  "about": "“Percutaneous preparations” (Astellas Pharma Inc., priority 2002, dated 2010)",
  "key": {"[1]": {"conditions": "as compared to control; cited from earlier work"}, "[2]": {"test_system": "dihydrotachysterol-induced calcification (calciphylaxis)", "conditions": "cited from earlier work"}, "[3]": {"test": "Percutaneous absorption test of 14C-incadronate aqueous solution", "type": "in vivo, rat", "conditions": "in 24 hours after the administration", "description": "The rat abdominal hair was shaved and a round cell (made of acryl, 20 mm in diameter) was fixed on the skin with a medical adhesive. […] During the test, the rat was fixed dorsally under urethane anesthesia. Bone tissue specimens were burnt in a tissue combustion equipment and the radioactivity was counted by a scintillation counter."}, "Solubility properties": {"test": "Solubility properties", "type": "physicochemical"}},
  "note": "Like-named read-outs stand apart in the source and are kept apart here.",
  "data": [
    {"smiles": "CC(O)(P(=O)(O)O)P(=O)(O)O", "note": "[etidronate]", "values": [
      {"measurement": "enhancement of penetration effect by decyl methyl sulfoxide", "setting": "[1]", "value": "about 6 fold"},
      {"measurement": "skin calcium level", "setting": "[2]; composition of etidronate and penetrating carrier containing decyl methyl sulfoxide", "value": 2.026, "unit": "%"},
      {"measurement": "skin calcium level", "setting": "[2]; etidronate alone dissolved in the penetrating carrier vehicle", "value": 0.067, "unit": "%"}
    ]},
    {"smiles": "O=P([O-])(O)C(NC1CCCCCC1)P(=O)([O-])O.[Na+].[Na+]", "note": "[incadronate, disodium incadronate]", "values": [
      {"measurement": "concentration in the bone tissues", "setting": "[3]", "value": "very high concentration in the bone tissues"}
    ]},
    {"smiles": "O=P(O)(O)C(O)(Cc1cnc2ccccn12)P(=O)(O)O", "note": "[minodronic acid, 1-hydroxy-2-(imidazo[1,2-a]pyridin-3-yl)ethylidenebisphosphonic acid]", "values": [
      {"measurement": "solubility in an alkaline solvent", "setting": "Solubility properties; alkaline solvent", "value": "soluble in an alkaline solvent"},
      {"measurement": "solubility in an organic solvent", "setting": "Solubility properties; organic solvent", "value": "insoluble even in an organic solvent"},
      {"measurement": "solubility in water", "setting": "Solubility properties; water", "value": "practically insoluble in water"}
    ]}
  ]
}
